The text below walks through data of patent publication US10253081B2, “Glucagon analogues” (Zealand Pharma A/S, priority 2012, dated 2019).

Each structure is given as a SMILES string. *1 amine or outer side, *2 acyl side, *3 side chain or, on linkers, in order; H or OH if unused. Where a SMILES comes first, the peptide text is derived from it. Side-chain parts run from the residue outwards. [ ]: non-standard residue; d: D form. The star is where a group is joined. γGlu = O=C(O)[C@H](CCC(=O)[*:2])N[*:1]; Palmitoyl = CCCCCCCCCCCCCCCC(=O)*; Aib = CC(C)(N)C(=O)O

Holding throughout (assay type): cell-based
The target in experiment [1] is T1, human glucagon receptor (Glucagon-R) (Homo sapiens, UniProt P47871).
T1 construct: expressed in transfected cells
The experiment is described as follows: Glucagon receptor efficacy assay (cAMP AlphaScreen, CHO cells). As to conditions: Table 1B; same protocol, different laboratory; read-out: EC50 hGCGR CHO-K1. The source says: (§1) The cDNA encoding either the human glucagon receptor (Glucagon-R) (primary accession number P47871) or the human glucagon-like peptide 1 receptor (GLP-1R) (primary accession number P43220) were synthesized and cloned into a mammalian expression vector containing a Zeocin resistance marker.
(§2) The mammalian expression vectors encoding the Glucagon-R or the GLP-1-R were transfected into Chinese hamster ovary (CHO) cells by the Attractene method method. Stably expressing clones were obtained by Zeocin selection (250 μg/mL) upon limited dilution of cells resistant to the selection pressure. Glucagon-R and GLP-1-R cell clones expressing were picked, propagated and tested in the Glucagon-R and GLP-1-R efficacy assays as described below. One Glucagon-R expressing clone and one GLP-1-R expressing clone were chosen for compound profiling.
(§3) CHO cells expressing the human Glucagon-R, or human GLP-1-R were seeded 24 hours prior to the assay at 30,000 cells per well in 96-well microtiter plates in culture in 100 μl growth medium. On the day of analysis, growth medium was removed and the cells were washed once with 200 μl of assay buffer (Krebs-Ringer-buffer—KRBH). The buffer was removed and the cells were incubated for 15 min at room temperature in 10 μl KRBH (KRBH+10 mM HEPES, 5 mM NaHCO3, 0.1% (V/V) BSA) with 0.1 mM IBMX in deionized water containing increasing concentrations of test peptides. The reaction was stopped by the addition of lysis buffer (0.1% w/v BSA, 5 mM HEPES, 0.3% v/v Tween-20). After cell lysis for 10 min at room temperature, lysates were transferred to 384-well plates and 10 μl of acceptor/donorbead mixture as contained in the AlphaScreen™ cAMP Functional Assay Kit was added. After one hour of incubation at room temperature in the dark, the cAMP content was determined applying the AlphaScreen™ cAMP Functional Assay Kit from Perkin-Elmer according to manufacturer instructions. EC50 and relative efficacies compared to reference compounds (glucagon and GLP-1) were calculated applying computer aided curve fitting. The GLP-1/glucagon ratio is calculated as defined earlier.
(Bead proximity is the source of the signal in Alpha formats.)

Experiment [2] addresses T2, endogenous GLP-1 receptors (Mus musculus, UniProt O35659).
T2 construct: Agonistic activity of the test compounds on endogenous GLP-1 receptors; endogenous in cells
T2 sequence (O35659 22-463): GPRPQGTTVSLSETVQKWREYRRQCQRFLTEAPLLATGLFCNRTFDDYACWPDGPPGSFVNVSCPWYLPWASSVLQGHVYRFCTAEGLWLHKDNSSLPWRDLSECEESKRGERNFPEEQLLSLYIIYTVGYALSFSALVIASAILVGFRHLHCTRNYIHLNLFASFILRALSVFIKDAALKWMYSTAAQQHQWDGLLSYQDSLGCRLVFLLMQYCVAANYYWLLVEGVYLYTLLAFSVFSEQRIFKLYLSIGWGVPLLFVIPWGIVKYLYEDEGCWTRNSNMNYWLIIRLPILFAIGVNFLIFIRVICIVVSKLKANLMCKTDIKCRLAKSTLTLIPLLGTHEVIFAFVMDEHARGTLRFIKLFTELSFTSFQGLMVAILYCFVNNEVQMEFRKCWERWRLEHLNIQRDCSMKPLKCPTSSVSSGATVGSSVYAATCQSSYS
In words: Agonistic activity on endogenous GLP-1 receptor (cAMP, murine insulinoma cell line). To be noted: intracellular cAMP, 15 minutes at 26° C.; read-out: EC50 GLP-1R (murine insulinoma cells). The protocol: Agonistic activity of the test compounds on endogenous GLP-1 receptors was determined using a murine insulinoma cell line. Intracellular cAMP was used an indicator of receptor activation.
Cells were cultured for 24 h at a density of 10,000 cells/well in a 384-well plate. Medium was removed and 10 μL KRBH buffer (NaCl 130 mM, KCl 3.6 mM, NaH2PO4 0.5 mM, MgSO4 0.5 mM, CaCl2) 1.5 mM) containing test compound or GLP-1 (at increasing concentrations from […] to 100 nM) or solvent control (0.1% (v/v) DMSO) was added to the wells for 15 minutes at a temperature of 26° C.
The cellular cAMP content is measured using the AlphaScreen cAMP Functional Assay Kit (Perkin Elmer). Measurement was performed using the Envision (PerkinElmer) according to manufacturer's recommendations.
All measurements were performed in quadruplicate.
Results were converted into cAMP concentrations using a cAMP standard curve prepared in KRBH buffer containing 0.1% (v/v) DMSO. The resulting cAMP curves were plotted as absolute cAMP concentrations (nM) over log (test compound concentration) and analyzed using the curve fitting program XLfit.
Parameters calculated to describe the both the potency as well as the agonistic activity of each test compound on the endogenous GLP-1 receptors were:
pEC50 (negative logarithmic value of EC50, a concentration resulting in a half-maximal elevation of cAMP levels, reflecting the potency of the test compound);
Percent control (% CTL)(% cAMP elevation for each test compound concentration normalized based on the GLP-1-induced maximum cAMP response (100% CTL)).

Experiment [3] concerns the target T3, human glucagon-like peptide 1 receptor (GLP-1R) (Homo sapiens, UniProt P43220).
T3 construct: expressed in transfected cells
In words: GLP-1 receptor efficacy assay (cAMP AlphaScreen, CHO cells). To be noted: Table 1B; for Ratio GLP-1/Glucagon: EC50 [GLP-1R]/EC50 [Glucagon-R]; for EC50: same protocol, different laboratory, read-out: EC50 hGLP-1R CHO-K1.
Source text: as §1, §2, §3

For experiment [4], the target named is T4, endogenous glucagon receptor (Rattus norvegicus, UniProt P30082).
T4 construct: Agonistic activity of the test compounds on endogenous glucagon receptor; endogenous in cells; host or cells: primary rat hepatocytes
In words: Agonistic activity on endogenous glucagon receptor (glycogen synthesis rate in primary rat hepatocytes). To be noted: inhibition of glycogen synthesis rate, 3 hours, read-out: EC50 GLP-1R Rat hepat. How it is done: Agonistic activity of the test compounds on endogenous glucagon receptor was determined by measuring their effect on rate of glycogen synthesis in primary rat hepatocytes. Upon activation of the glucagon receptor, an inhibition of the glycogen synthesis rate is expected. Rate of glycogen synthesis was determined by counting the amount of radioactively labeled glucose incorporated into the cellular glycogen stores in a defined period of time.
Primary rat hepatocytes were cultured at a density of 40,000 cells/well in a 24-well plate for 24 hours at 37° C. and 5% CO2.
Medium was discarded and the cells washed with PBS. 180 μL of KRBH-based buffer containing 0.1% BSA and glucose at a concentration of 22.5 mM was then added to the wells, followed by test compound and 40 μCi/ml D-[U14C] glucose (20 μL each). Incubation was continued for 3 hours.
At the end of the incubation period, the incubation buffer was aspirated and cells washed once with ice-cold PBS before lysis by incubation for 30 min at room temperature with 100 μL 1 mol/l NaOH.
Cell lysates were transferred to 96-well filter plates and glycogen precipitated by incubating the filter-plates for 120 min at 4° C. followed by washing the filter plates 4 times with ice-cold ethanol (70%). The resulting precipitates were filtered to dryness and the amount of incorporated ^14C-glucose determined by using a Topcount scintillation counter according to manufacturer's recommendations.
Wells with vehicle controls (0.1% (v/v) DMSO in KRBH buffer) were included as reference for non-inhibited glycogen synthesis (100% CTL). Wells without added D-[U^14C] glucose were included as controls for non-specific background signal (subtracted from all values). Endogenous glucagon peptide was used as a positive control.
All treatments were performed at least in triplicates.
Parameters calculated to describe the both the potency as well as the agonistic activity of each test compound on the endogenous glucagon receptor are pEC50 and % CTL. % CTL is determined by calculating the percentage of CPM/well in the presence of the test compound compared to the CPM/well of the vehicle control after subtracting the background CPM/well: [CPM/well(basal)−CPM/well(sample)]*100/[CPM/well(basal)−CPM/well(control)]
An activator of the glucagon receptor will result in an inhibition of the glycogen synthesis rate and will give % CTL values between 0% CTL (complete inhibition) and 100% CTL (no observable inhibition).
The resulting activity curves were plotted as absolute counts (unit: cpm/sample) over log (test compound concentration) and analyzed using the curve fitting program XLfit.
pEC50 (negative logarithmic value of EC50) reflects the potency of the test compound.
The terms EC50 and pEC50 quoted in relation to GLP-1R activation could equally be regarded as IC50 and pIC50 in relation to glycogen synthesis.

T1 sequence (P47871 26-477): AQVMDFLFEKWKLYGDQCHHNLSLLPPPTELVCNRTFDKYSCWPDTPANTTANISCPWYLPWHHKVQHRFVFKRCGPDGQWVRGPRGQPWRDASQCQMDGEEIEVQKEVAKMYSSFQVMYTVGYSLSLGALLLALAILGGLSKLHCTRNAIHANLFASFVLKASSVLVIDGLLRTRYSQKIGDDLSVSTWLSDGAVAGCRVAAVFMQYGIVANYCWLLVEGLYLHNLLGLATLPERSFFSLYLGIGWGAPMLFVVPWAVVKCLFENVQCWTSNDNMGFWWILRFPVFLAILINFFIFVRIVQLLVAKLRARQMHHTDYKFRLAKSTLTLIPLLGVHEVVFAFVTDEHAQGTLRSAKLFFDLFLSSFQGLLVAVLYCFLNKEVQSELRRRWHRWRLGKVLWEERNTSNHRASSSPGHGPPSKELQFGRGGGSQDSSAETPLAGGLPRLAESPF
T4 sequence (P30082 27-485): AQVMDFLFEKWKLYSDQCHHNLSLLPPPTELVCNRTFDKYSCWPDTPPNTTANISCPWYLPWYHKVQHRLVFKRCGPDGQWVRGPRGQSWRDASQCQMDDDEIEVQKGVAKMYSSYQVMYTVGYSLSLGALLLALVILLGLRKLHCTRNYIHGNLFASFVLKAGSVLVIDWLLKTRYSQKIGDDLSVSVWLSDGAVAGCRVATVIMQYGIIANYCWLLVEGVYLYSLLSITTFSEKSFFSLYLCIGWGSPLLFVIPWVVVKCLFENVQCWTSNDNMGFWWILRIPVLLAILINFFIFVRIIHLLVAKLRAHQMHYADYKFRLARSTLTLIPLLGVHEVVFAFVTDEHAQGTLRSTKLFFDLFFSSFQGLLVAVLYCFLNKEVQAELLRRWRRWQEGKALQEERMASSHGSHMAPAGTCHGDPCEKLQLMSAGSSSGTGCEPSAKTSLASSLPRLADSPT
T3 sequence (P43220 24-463): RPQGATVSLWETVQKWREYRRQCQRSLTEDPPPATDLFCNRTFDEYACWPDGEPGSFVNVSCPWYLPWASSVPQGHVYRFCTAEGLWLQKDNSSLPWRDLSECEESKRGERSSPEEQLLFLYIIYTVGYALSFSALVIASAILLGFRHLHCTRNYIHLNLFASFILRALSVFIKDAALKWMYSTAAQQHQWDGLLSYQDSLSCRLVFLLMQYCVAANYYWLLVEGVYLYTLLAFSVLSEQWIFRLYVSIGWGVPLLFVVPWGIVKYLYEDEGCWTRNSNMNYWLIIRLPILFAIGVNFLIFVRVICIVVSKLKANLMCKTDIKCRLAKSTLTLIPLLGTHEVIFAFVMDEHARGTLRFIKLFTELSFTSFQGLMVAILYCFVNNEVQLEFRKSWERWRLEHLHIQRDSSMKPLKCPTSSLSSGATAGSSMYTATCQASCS

`CCCCCCCCCCCCCCCC(=O)N[C@@H](CCC(=O)NCCCC[C@H](NC(=O)[C@H](CCC(=O)O)NC(=O)[C@H](CCC(=O)O)NC(=O)[C@H](CC(C)C)NC(=O)[C@H](Cc1ccc(O)cc1)NC(=O)[C@H](CCCCN)NC(=O)[C@H](CO)NC(=O)[C@H](Cc1ccc(O)cc1)NC(=O)[C@H](CC(=O)O)NC(=O)[C@H](CO)NC(=O)[C@@H](NC(=O)[C@H](Cc1ccccc1)NC(=O)[C@@H](NC(=O)CNC(=O)[C@H](CCC(N)=O)NC(=O)C(C)(C)NC(=O)[C@@H](N)Cc1c[nH]cn1)[C@@H](C)O)[C@@H](C)O)C(=O)N[C@@H](C)C(=O)N[C@@H](C)C(=O)N[C@@H](CCCCN)C(=O)N[C@@H](CC(=O)O)C(=O)N[C@@H](Cc1ccccc1)C(=O)N[C@H](C(=O)N[C@@H](CCC(=O)O)C(=O)N[C@@H](Cc1c[nH]c2ccccc12)C(=O)N[C@@H](CC(C)C)C(=O)N[C@@H](CCC(=O)O)C(=O)N[C@@H](CO)C(=O)N[C@@H](C)C(N)=O)[C@@H](C)CC)C(=O)O` [Compound 20, H-H-Aib-QGTFTSDYSKYLEE-K(Hexadecanoyl-isoGlu)-AAKDFIEWLESA-NH2] (H-H[Aib]QGTFTSDYSKYLEEK([γGlu-Palmitoyl])AAKDFIEWLESA-NH2): the EC50 in experiment [1] amounted to 0.68 nM; in experiment [2] it was 0.27 nM; in experiment [3], 0.23 nM; in experiment [4] it was 0.39 nM. In experiment [3], the “Ratio GLP-1/Glucagon” value came to 0.34.
In the same order, the values of `CCCCCCCCCCCCCCCC(=O)N[C@@H](CCC(=O)NCCCC[C@H](NC(=O)[C@H](CO)NC(=O)[C@H](CCC(=O)O)NC(=O)[C@H](CC(C)C)NC(=O)[C@H](Cc1ccc(O)cc1)NC(=O)[C@H](CCCCN)NC(=O)[C@H](CO)NC(=O)[C@H](Cc1ccc(O)cc1)NC(=O)[C@H](CC(=O)O)NC(=O)[C@H](CO)NC(=O)[C@@H](NC(=O)[C@H](Cc1ccccc1)NC(=O)[C@@H](NC(=O)CNC(=O)[C@H](CCC(N)=O)NC(=O)C(C)(C)NC(=O)[C@@H](N)Cc1c[nH]cn1)[C@@H](C)O)[C@@H](C)O)C(=O)N[C@@H](C)C(=O)N[C@@H](C)C(=O)N[C@@H](CCC(=O)O)C(=O)N[C@@H](CC(=O)O)C(=O)N[C@@H](Cc1ccccc1)C(=O)N[C@H](C(=O)N[C@@H](CCC(=O)O)C(=O)N[C@@H](Cc1c[nH]c2ccccc12)C(=O)N[C@@H](CC(C)C)C(=O)N[C@@H](CCC(=O)O)C(=O)N[C@@H](CO)C(=O)N[C@@H](C)C(N)=O)[C@@H](C)CC)C(=O)O` [Compound 21, H-H-Aib-QGTFTSDYSKYLES-K(Hexadecanoyl-isoGlu)-AAEDFIEWLESA-NH2] (H-H[Aib]QGTFTSDYSKYLESK([γGlu-Palmitoyl])AAEDFIEWLESA-NH2) are 1.32 nM, 0.3 nM, 0.12 nM, 3.4 nM and 0.09.
In the case of `CCCCCCCCCCCCCCCC(=O)N[C@@H](CCC(=O)NCCCC[C@H](NC(=O)[C@H](CCC(=O)O)NC(=O)[C@H](CCC(=O)O)NC(=O)[C@H](CC(C)C)NC(=O)[C@H](Cc1ccc(O)cc1)NC(=O)[C@H](CCCCN)NC(=O)[C@H](CO)NC(=O)[C@H](Cc1ccc(O)cc1)NC(=O)[C@H](CC(=O)O)NC(=O)[C@H](CO)NC(=O)[C@@H](NC(=O)[C@H](Cc1ccccc1)NC(=O)[C@@H](NC(=O)CNC(=O)[C@H](CCC(N)=O)NC(=O)[C@H](CO)NC(=O)[C@@H](N)Cc1c[nH]cn1)[C@@H](C)O)[C@@H](C)O)C(=O)N[C@@H](C)C(=O)N[C@@H](C)C(=O)N[C@@H](CCCCN)C(=O)N[C@@H](CC(=O)O)C(=O)N[C@@H](Cc1ccccc1)C(=O)N[C@H](C(=O)N[C@@H](CCC(=O)O)C(=O)N[C@@H](Cc1c[nH]c2ccccc12)C(=O)N[C@@H](CC(C)C)C(=O)N[C@@H](CCC(=O)O)C(=O)N[C@@H](CO)C(=O)N[C@@H](C)C(N)=O)[C@@H](C)CC)C(=O)O` [Compound 22, H-HSQGTFTSDYSKYLEE-K(Hexadecanoyl-isoGlu)-AAKDFIEWLESA-NH2] (H-HSQGTFTSDYSKYLEEK([γGlu-Palmitoyl])AAKDFIEWLESA-NH2), the half-maximal effective concentration (EC50) came out at 0.1 nM in experiment [1], 0.35 nM in experiment [2], 0.24 nM in experiment [3] and 0.28 nM in experiment [4]. Further, the “Ratio GLP-1/Glucagon” value in experiment [3] is 2.40.

The term EC50 denotes the concentration at which the effect is half-maximal.
